Data taken from patent US20230134843A1, “TREATMENT OF STEM CELL DEFICIENCY” (OSPEDALE SAN RAFFAELE S.R.L., priority 2020, published 2023).
Entries after “also recorded” stand apart in the source; their conditions may differ.

Assays:
CD45+ cells = experiment: CD45+ inflammatory cell infiltration by immunohistochemistry, acute GVHD mouse model; format: in vivo, mice; conditions: Fosaprepitant 10 mg/mL topically six times a day, day 29
Method: (§1) 10-week-old male BALB/C and C57BL/6N mice (Charles River Laboratory, Lecco, Italy) were used for all the experiments (n=5/each group). All mice were free from ocular surface disease at baseline. The housing conditions were controlled (temperature 22° C., light from 07:00-19:00, humidity 50%-60%), and fresh food and water were freely available. The animals were monitored 3 times per week for 28 days post-transplantation for in vivo slit-lamp microscopy imaging, ocular surface score and systemic GVHD score (FIG. 11A). Carbon dioxide inhalation and subsequent cervical dislocation were applied to euthanize the animals. All the experiments were approved by the Animal Care and Use Committee of the IRCCS San Raffaele Scientific Institute, in accordance with the ARVO Statement for the Use of Animals in Ophthalmic and Vision Research.
(§2) Allogenic BMT was conducted using the C57BL/6N and BALB/c mice as transplant donors and recipients, respectively. The recipient mice received total body irradiation (TBI) (900 cGy divided in two fractions) from a Cs source 1 day before the transplantation. The donor C57BL/6N mice were sacrificed on dry ice and they femur and spleen were harvested. The bones were gently crushed manually using a sterile stick, and bone marrow (BM) cells were released by mixing the fragments of bones with RPMI. The suspension of BM cells was filtered to remove the impurities inside. The spleens were also gently crushed into a cell suspension and filtered. Inventors suspended the BM cells and splenic cells with RPMI and adjusted the density of cells to 1×10^6/[…] and 2×10^6/[…], respectively. […]
(§3) Mice were sacrificed 28 days after BM transplantation (Day 29 post irradiation) by carbon dioxide inhalation. […] Following three washes with PBS-T, sections were incubated in anti-goat HRP for 15 minutes and then detected with a goat-on-rodent HRP-Polymer Kit (Biocare Medical). Primary antibody labeling was detected using brown DAB substrate (Vector Laboratories, Burlingame, Calif., USA). […]

CD3+ cells = experiment: CD3+ cell (T cell) infiltration by immunohistochemistry, acute GVHD mouse model; format: in vivo, mice; conditions: Fosaprepitant 10 mg/mL topically six times a day; day 29; p<0.001
Method: as §1, §2, §3

SMILES: C[C@@H](O[C@H]1OCCN(Cc2nc(=O)n(P(=O)(O)O)[nH]2)[C@H]1c1ccc(F)cc1)c1cc(C(F)(F)F)cc(C(F)(F)F)c1 [Fosaprepitant, [3-{[(2R,3S)-2-[(1R)-1-[3,5-bis(trifluoromethyl)phenyl]ethoxy]-3-(4-fluorophenyl)morpholin-4-yl]methyl}-5-oxo-2H-1,2,4-triazol-1-yl]phosphonic acid]
- CD45+ cell infiltration in the lacrimal gland (CD45+ cells; among all groups): no significant difference
- CD45+ cell infiltration in the conjunctiva (CD45+ cells; p<0.0001): significantly reduced
- CD45+ cell infiltration in the cornea (CD45+ cells; p<0.01): significantly reduced
- CD3+ cells infiltrating the conjunctiva (CD3+ cells): reduced; also recorded: significantly decreased
- CD3+ cells infiltrating the cornea (CD3+ cells): reduced; also recorded: significantly decreased
- CD3+ cells infiltrating the lacrimal gland (CD3+ cells): reduced; also recorded: significantly decreased
